Patent US20190307754A1, “PDE9 INHIBITORS FOR TREATMENT OF PERIPHERAL DISEASES” (IMARA, INC., priority 2016, published 2019)
“And” between values parts separate entries of the source, which are not always exact repeats. Equal entries are not always repeated. “Also recorded” adds a separate entry of the source. Marks after values point to notes of the source that are not given here.

Experiments:
[1] = target: hERG-mediated potassium currents (Homo sapiens, UniProt Q12809); test: in vitro hERG assay; format: cell-based; details: concentrations up through 10^−5 M
Description: The safety pharmacology assessment of Compound P3.1 included an in vitro hERG assay, neurofunctional and respiratory studies in rats, and a cardiovascular study in beagle dogs.

[2] = target: PDE9 (Homo sapiens, UniProt O76083); test: PDE9 inhibition assay; format: biochemical
Description: Reactions are initiated by addition of the cyclic nucleotide substrate, and reactions are allowed to proceed for one hr at room temperature before being terminated through mixing with 15 uL 8 mg/mL yttrium silicate SPA beads (Amersham).
Following a 1 hour incubation the reactions were terminated by addition of 15 uL 8 mg/mL yttrium silicate SPA beads (Amersham). […] IC50 values were calculated by nonlinear regression using XLfit (IDBS).

[3] = Plasma protein binding, monkey; format: in vitro ADME; details: read-out: mean plasma fraction bound (converted)
[4] = in vivo; details: rat, 250 mg/kg/day
Description: Animals were observed daily from the start of the dosing and body weights and food intake were recorded at regular intervals. Blood samples were collected from a subset of animals in each group at 6 time points on Day 7 for TK evaluation.

[5] = test system: HbSS-Townes mice; test: Microvascular stasis and hematology in HbSS-Townes mice; format: in vivo
Description: The ability of Compound P3.1 to reduce vaso-occulsion was assessed in HbSS-Townes transgenic sickle mice after transient hypoxia and re-oxygenation. This study assessed the effects of repeated (10 days) oral dosing of Compound P3.1 and HU on microvascular stasis and other hematological markers of sickle cell disease, after transient hypoxia and re-oxygenation, in Townes transgenic sickle mice, a mouse model of sickle cell disease (Hba^tm1(HBA)Tow Hbb^tm2(HBG1,HBB*)Tow/Hbb^tm3(HBG1,HBB)Tow/J). HbSS-Townes mice were divided into groups of 3 mice and were then dosed orally via drinking water with Compound P3.1 at 10 mg/kg/day, Compound P3.1 at 30 mg/kg/day, HU (100 mg/kg/day), or a combination of Compound P3.1 and HU (at doses of 30 and 100 mg/kg/day, respectively) for 10 days. A final group received water containing 0.08% methylcellulose, the vehicle used to prepare the test items, and served as controls. On Day 7 of treatment, the mice were implanted with dorsal skin-fold chambers (DSFC), and on Day 10 of treatment, 20-23 flowing subcutaneous venules in the DSFC window were selected and mapped. After venule selection and mapping, mice were placed in a chamber and exposed to a hypoxic atmosphere (7% O2/93% N2) for 1 hour, after which they were returned to room air. All of the selected venules were re-examined after 1 and 4 hours of re-oxygenation in room air and the number of static (no flow) venules was counted and expressed as percent stasis. On completion of these measurements, blood was collected for clinical pathology with a focus on hematological measures associated with sickle cell disease.

[6] = Brain and plasma concentrations after single IV dose in rat; format: in vivo; details: for Mean Plasma/Brain Ratio / Concentration Brain / Concentration Plasma / Plasma/Brain Ratio: 3 mg/kg IV; for Concentration Brain / Concentration Plasma / Plasma/Brain Ratio: individual animals, 3 mg/kg
Description: (§1) Blood samples were taken at 2 minutes (IV only), then 8, 15, 30 minutes, and 1, 2, 4, 8, and 24 hours after dosing and analyzed for key PK parameters. In the rats, brain samples were taken at 24 hours and analyzed for Compound P3.1. To evaluate the penetration of Compound P3.1 across the blood-brain barrier (BBB), 10 additional rats received IV Compound P3.1 3 mg/kg and plasma and brain concentrations of Compound P3.1 were determined from 2 animals at 15 minutes, 30 minutes and 1, 2, and 4 hours after dosing.

[7] = Bacterial reverse mutation assay; format: cell-based
Description: (§2) The genotoxicity evaluation of Compound P3.1 consisted of a bacterial reverse mutation assay, a chromosome aberration study, and a in vivo rat micronucleus study. Compound P3.1 was negative in all 3 assays.

[8] = test system: rat; test: Rat female fertility study; format: in vivo; details: female rat, 25, 100, or 200 mg/kg/d oral gavage
Description: In a rat female fertility study, animal groups were given 0, 25, 100, or 200 mg/kg/d oral gavage of Compound P3.1. No treatment-related clinical signs were observed. […] There were no macroscopic necropsy findings that indicated an effect of Compound P3.1 administration.

[9] = test system: CYP3A4; test: CYP induction, CYP3A4; format: in vitro ADME
[10] = Metabolic stability (intrinsic clearance) in liver microsomes; format: in vitro ADME, mouse, rat, dog, monkey, and human
[11] = Stability study of drug substance (ambient and 40-45 °C); format: physicochemical; details: ambient temperature and 40° C.−45° C., 3-month period
Description: A stability study has been completed on Compound P3.1. Samples of Compound P3.1 were aliquoted into double-walled polyethylene pouches, which were tied off and then heat-sealed in an aluminum pouch. Samples were stored at ambient temperature and at 40° C.−45° C. (no humidity control) with testing performed over a 3-month period.

[12] = Pharmacokinetics of single oral and IV dose in CD1 mice; format: in vivo
Description: as §1

[13] = test system: rat; test: In vivo rat micronucleus study
Description: as §2

[14] = Compound P3.1 30 mg/kg/day, HU 100 mg/kg/day, or both, 10 days
[15] = mouse, blood, CD1 mice, 3 mg/kg IV
[16] = mouse, blood, CD1 mice, 10 mg/kg oral

hERG-mediated potassium currents, sequence (Q12809 whole entry): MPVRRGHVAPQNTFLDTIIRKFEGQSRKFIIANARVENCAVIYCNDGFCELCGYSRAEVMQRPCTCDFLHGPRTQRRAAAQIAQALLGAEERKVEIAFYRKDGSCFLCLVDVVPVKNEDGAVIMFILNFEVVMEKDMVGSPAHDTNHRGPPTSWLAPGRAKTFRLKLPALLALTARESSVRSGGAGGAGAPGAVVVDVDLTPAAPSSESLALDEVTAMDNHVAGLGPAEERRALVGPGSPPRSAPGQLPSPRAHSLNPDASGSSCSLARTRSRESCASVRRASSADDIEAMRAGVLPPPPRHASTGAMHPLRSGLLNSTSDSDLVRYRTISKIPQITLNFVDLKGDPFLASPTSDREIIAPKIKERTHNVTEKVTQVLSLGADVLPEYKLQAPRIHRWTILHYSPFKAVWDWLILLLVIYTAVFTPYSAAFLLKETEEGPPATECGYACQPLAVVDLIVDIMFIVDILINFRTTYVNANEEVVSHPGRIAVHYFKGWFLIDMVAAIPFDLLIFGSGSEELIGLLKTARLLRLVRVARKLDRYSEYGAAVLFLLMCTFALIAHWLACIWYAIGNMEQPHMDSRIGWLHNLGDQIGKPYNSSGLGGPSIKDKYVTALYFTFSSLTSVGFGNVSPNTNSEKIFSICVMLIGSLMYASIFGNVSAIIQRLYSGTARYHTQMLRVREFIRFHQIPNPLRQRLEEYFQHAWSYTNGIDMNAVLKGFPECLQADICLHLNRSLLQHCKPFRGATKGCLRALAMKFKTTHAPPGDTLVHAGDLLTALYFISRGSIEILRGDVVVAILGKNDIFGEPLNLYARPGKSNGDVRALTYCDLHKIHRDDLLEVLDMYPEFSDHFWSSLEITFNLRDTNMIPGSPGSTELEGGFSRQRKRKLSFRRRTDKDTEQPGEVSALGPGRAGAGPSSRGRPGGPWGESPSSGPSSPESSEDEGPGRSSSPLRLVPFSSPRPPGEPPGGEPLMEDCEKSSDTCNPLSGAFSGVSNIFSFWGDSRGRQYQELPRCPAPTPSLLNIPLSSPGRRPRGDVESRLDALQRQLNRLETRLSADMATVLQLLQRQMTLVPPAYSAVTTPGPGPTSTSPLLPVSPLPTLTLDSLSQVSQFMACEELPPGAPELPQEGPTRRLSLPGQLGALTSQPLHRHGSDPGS
PDE9, sequence (O76083 whole entry): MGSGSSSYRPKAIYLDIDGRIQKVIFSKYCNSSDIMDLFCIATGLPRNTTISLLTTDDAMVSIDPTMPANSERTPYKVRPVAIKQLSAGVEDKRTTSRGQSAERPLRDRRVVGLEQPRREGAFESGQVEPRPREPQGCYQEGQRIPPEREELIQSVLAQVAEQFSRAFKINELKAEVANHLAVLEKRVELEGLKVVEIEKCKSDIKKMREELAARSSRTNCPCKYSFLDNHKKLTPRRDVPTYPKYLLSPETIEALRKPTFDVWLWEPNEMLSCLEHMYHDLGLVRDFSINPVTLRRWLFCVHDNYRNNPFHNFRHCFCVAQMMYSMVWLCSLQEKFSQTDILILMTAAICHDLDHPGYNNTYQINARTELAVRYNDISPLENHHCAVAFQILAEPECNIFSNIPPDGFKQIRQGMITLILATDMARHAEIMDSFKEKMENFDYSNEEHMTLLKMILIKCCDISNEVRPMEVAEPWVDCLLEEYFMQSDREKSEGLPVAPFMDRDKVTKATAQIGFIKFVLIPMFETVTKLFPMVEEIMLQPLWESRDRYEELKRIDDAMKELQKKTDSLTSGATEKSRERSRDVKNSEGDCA

SMILES: C[C@@H]1CN(Cc2ncccn2)C[C@H]1c1cn2c(C3CCOCC3)ncc2c(=O)[nH]1 (single isomer, unassigned) [Compound P3.1]
- inhibitory effect on hERG-mediated potassium currents [1]: did not have an inhibitory effect; also recorded: no inhibitory effect
- IC50 [2]: 49 nM
- fraction unbound [3]: 0.814
- AUC0-24 ([4]; male, Crl:WI(Han), po): 198000 ng·h/mL
- Cmax ([4]; male, Crl:WI(Han), po): 18800 ng/mL
- AUC(0-t) ([4]; male, Crl:WI(Han), po, AUC0-24): 226000 ng·h/mL
- Cmax ([4]; male, Crl:WI(Han), po, Cmax): 16500 ng/mL
- Cmax and systemic exposure of Compound P3.1 in isolation vs in combination with HU [4]: similar
- microvascular stasis ([5]; 10 mg/kg/day, 10 days, 1-hour time point): reduced stasis statistically significantly
- microvascular stasis ([5]; 10 mg/kg/day, 10 days, 4 hours): not at 4 hours
- microvascular stasis ([5]; 30 mg/kg/day Compound P3.1 or 100 mg/kg HU, drinking water, 10 days, 1 and 4 hours post hypoxia): statistically significant reductions in stasis
- total WBC numbers ([5]; Compound P3.1 30 mg/kg/day or HU 100 mg/kg/day, 10 days): reduce total WBC numbers
- vessel occlusion induced by transient hypoxia and re-oxygenation ([5]; Compound P3.1 30 mg/kg/day, HU 100 mg/kg/day, or both): effectively reduced
- number of HbF positive red cells [5, 14]: increase the number of HbF positive red cells
- proportion of sickled RBCs [5, 14]: reduce the proportion of sickled RBCs
- Mean Plasma/Brain Ratio ([6]; 0.25 h post dose): 20.2
- Concentration Brain ([6]; 0.25 h post dose): 111 and 112
- Concentration Plasma ([6]; 0.25 h post dose): 2400 and 2110
- Plasma/Brain Ratio ([6]; 0.25 h post dose): 21.6 and 18.8
- Mean Plasma/Brain Ratio ([6]; 0.5 h post dose): 25.1
- Concentration Brain ([6]; 0.5 h post dose): 82.5 and 50.7
- Concentration Plasma ([6]; 0.5 h post dose): 1790 and 1450
- Plasma/Brain Ratio ([6]; 0.5 h post dose): 21.7 and 28.6
- Mean Plasma/Brain Ratio ([6]; 1 h post dose): 23.1
- Concentration Brain ([6]; 1 h post dose): 28.6 and 44.1
- Concentration Plasma ([6]; 1 h post dose): 647 and 1040
- Plasma/Brain Ratio ([6]; 1 h post dose): 22.6 and 23.6
- Mean Plasma/Brain Ratio ([6]; 2 h post dose): 33.1
- Concentration Brain ([6]; 2 h post dose): 8.88 and 5.34
- Concentration Plasma ([6]; 2 h post dose): 245 and 206
- Plasma/Brain Ratio ([6]; 2 h post dose): 27.6 and 38.6
- Concentration Plasma ([6]; 4 h post dose): 59.8 and 107
- brain concentration at 4 hours postdose ([6]; IV dosing, 4 hours postdose): no longer detectable in the brain
- genotoxicity, bacterial reverse mutation assay [7]: negative
- early embryonic development [8]: no adverse effect
- pre- or post-implantation loss [8]: no effect
- induction of CYP3A4 [9]: potential for induction
- metabolic stability ([10]; mouse, rat, dog, monkey, and human liver microsomes): highly stable
- intrinsic clearance in liver microsomes ([10]; presence or absence of NADPH): minimal intrinsic clearance
- stability: appearance and purity of drug substance [11]: no changes to appearance or purity
- bioavailability ([12]; CD1, mouse, plasma, po, 10 mg/kg, read-out: oral bioavailability Flast): 44.6%
- Cl_obs ([12]; CD1 mice, 3 mg/kg IV): 30.7 mL/min/kg
- Flast ([12]; CD1 mice, 10 mg/kg oral): 63.4%
- Vss obs ([12]; CD1 mice, 10 mg/kg oral): 63.4** L/kg
- continuously exposed out to ([12]; mice, 10 mg/kg oral): 4 h
- AUC(0-t) [12, 15]: 1630 ng·h/mL
- C0 [12, 15]: 4430 ng/mL
- MRT [12, 15]: 26.4 min
- half-life [12, 15]: 37.8 min
- Vd ([12]; mouse, blood, CD1 mice, 3 mg/kg IV, read-out: Vss obs): 0.89 L/kg
- AUC(0-t) [12, 16]: 3440 ng·h/mL
- C0 [12, 16]: 2750 ng/mL
- Tmax [12, 16]: 30 min
- half-life [12, 16]: 48.6 min
- genotoxicity, in vivo rat micronucleus study [13]: negative
